{"source": "patent US7109245B2", "about": "“Vasoconstrictor cannabinoid analogs” (priority 2001, dated 2006)", "key": {"[1]": {"molecular_target": "brain cannabinoid (CB1) receptor (Homo sapiens, UniProt P21554)", "sequence (P21554 whole entry, species assumed)": "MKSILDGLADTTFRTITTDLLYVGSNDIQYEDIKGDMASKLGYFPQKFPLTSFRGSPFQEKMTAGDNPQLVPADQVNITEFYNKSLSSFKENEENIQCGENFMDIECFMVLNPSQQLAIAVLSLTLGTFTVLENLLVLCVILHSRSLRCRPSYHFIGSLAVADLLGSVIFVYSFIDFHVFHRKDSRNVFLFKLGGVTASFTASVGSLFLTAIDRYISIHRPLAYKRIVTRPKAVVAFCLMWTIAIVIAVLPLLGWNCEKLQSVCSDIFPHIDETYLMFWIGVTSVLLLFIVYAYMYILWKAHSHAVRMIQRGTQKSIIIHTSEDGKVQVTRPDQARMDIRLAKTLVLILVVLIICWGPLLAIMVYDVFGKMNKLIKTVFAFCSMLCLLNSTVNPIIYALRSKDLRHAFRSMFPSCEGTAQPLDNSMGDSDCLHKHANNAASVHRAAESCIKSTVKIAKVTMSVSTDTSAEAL", "details": "cited from earlier work"}, "mesenteric arteries [2]": {"system": "mesenteric arteries", "details": "cited from earlier work; for dilation of isolated mesenteric arteries: normal rats and mice, CB1 knockout and CB1/CB2 double knockout mice"}, "[3]": {"system": "normal rats and mice, CB1 knockout mice, CB1/CB2 double knockout mice", "details": "cited from earlier work"}, "[4]": {"system": "Rat isolated mesenteric branch arteries", "assay": "Vasorelaxation of rat isolated mesenteric branch arteries precontracted with phenylephrine, wire myograph", "method": "Arteries were mounted in a wire myograph, and precontracted with phenylephrine. Relaxation is expressed as % of the phenylephrine-induced vasoconstrictor tone, 0% representing maximal relaxation.\nRat isolated mesenteric branch arteries (˜200 μm in diameter) were precontracted with phenylephrine and measurements were recorded with a wire myograph."}, "ICR mice": {"system": "ICR mice", "assay": "Blood pressure of pentobarbital-anesthetized ICR mice (femoral artery cannula)", "format": "in vivo, mouse", "description": "By way of example, ICR mice were anesthetized with pentobarbital, and polyethylene cannulae were inserted into the femoral artery and vein for monitoring blood pressure and injecting drugs, respectively. Blood pressure was monitored directly by connecting the arterial cannula to a pressure transducer and physiograph."}, "mesenteric arteries [5]": {"system": "mesenteric arteries", "assay": "Mesenteric vasodilator response"}, "rats and mice": {"system": "rats and mice", "details": "in vivo; cited from earlier work"}, "[6]": {"system": "mesenteric branch arteries isolated from wild-type and CB1 receptor deficient mice", "assay": "Calcium-induced relaxation of mouse isolated mesenteric branch arteries precontracted with norepinephrine", "details": "10 μM O-1918"}, "LPS-induced hypotension": {"system": "LPS-induced hypotension", "assay": "LPS-induced hypotension in anesthetized mice", "format": "in vivo, mouse", "description": "Endotoxin was used to induce hypotension in control mice as well as in mice deficient in CB1 or both CB1 and CB2 receptors."}}, "note": "“Also recorded” adds a separate entry of the source. Where two headings read alike, the source gives them in different places."}
{"smiles": "C=C(C)[C@@H]1CCC(C)=C[C@H]1c1c(O)cc(O)cc1CCCCC", "note": "[Abn-cbd, abnormal cannabidiol]", "values": [{"measurement": "binding to CB1 receptor", "setting": "[1]", "result": "does not bind to CB1 receptors"}, {"measurement": "dilation of isolated mesenteric arteries", "setting": "mesenteric arteries [2]", "result": "dilate isolated mesenteric arteries"}, {"measurement": "effect on blood pressure", "setting": "[3]; normal rats and mice, CB1 knockout and CB1/CB2 double knockout mice", "result": "lower blood pressure"}, {"measurement": "type of agonism in vasorelaxation", "setting": "[4]", "result": "full agonist"}, {"measurement": "EC50", "setting": "[4]; Abn-cbd alone, read-out: vasorelaxation EC50", "result": "3.3 ± 0.5", "unit": "µM"}, {"measurement": "EC50", "setting": "[4]; in the presence of 10 μM O-1918, read-out: vasorelaxation EC50 in the presence of O-1918", "result": "26 ± 10", "unit": "µM"}, {"measurement": "effect on blood pressure", "setting": "ICR mice; intravenous injection of 10 mg/kg Abn-cbd", "result": "transient drop in blood pressure followed by a brief increase and then a more prolonged, significant decrease in pressure"}, {"measurement": "vasodilator response in presence of L-NAME and indomethacin", "setting": "mesenteric arteries [5]; 100 μM L-NAME and 10 μM indomethacin", "result": "remains unchanged"}, {"measurement": "vasodilation in presence of capsazepine", "setting": "mesenteric arteries [5]; bolus injection of 4 mg Abn-cbd, 5 μM capsazepine", "result": "elicited the same long lasting vasodilation"}, {"measurement": "neurobehavioral effects", "setting": "rats and mice", "result": "does not elicit cannabinoid-like neurobehavioral effects"}]}
{"smiles": "CCCCCCC(C)(C)c1cc(O)c2c(c1)OC(C)(C)[C@@H]1CC=C(CO)C[C@@H]21", "note": "[HU-210]", "values": [{"measurement": "hypotensive effect in CB1 receptor deficient mice", "setting": "[3]; CB1 receptor deficient mice", "result": "absent"}]}
{"smiles": "C=C(C)C1CCC(C)=CC1c1c(OC)cc(C)cc1OC", "note": "(stereo not shown) [O-1918]", "values": [{"measurement": "inhibition of calcium-induced relaxation", "setting": "[6]", "result": "inhibited the calcium-induced relaxation"}, {"measurement": "prevention of LPS-induced hypotension", "setting": "LPS-induced hypotension; 10 mg/kg O-1918, normal anesthetized mice, 100 mg/kg LPS", "result": "prevent the hypotension"}, {"measurement": "inhibition of LPS-induced hypotension", "setting": "LPS-induced hypotension; pretreatment 1 to 10 mg/kg O-1918, ICR mice, 100 ng/kg LPS i.v., FIG. 3", "result": "dose-dependently inhibited"}, {"measurement": "inhibition of vasorelaxation caused by CGRP", "setting": "[4]; 10 μM O-1918", "result": "did not inhibit the vasorelaxation"}, {"measurement": "inhibition of vasorelaxation caused by carbachol", "setting": "[4]; 10 μM O-1918", "result": "did not inhibit the vasorelaxation"}, {"measurement": "effect on vascular tone", "setting": "[4]; concentrations up to 30 μM", "result": "did not alter vascular tone"}, {"measurement": "shift of dose-response curve to Abn-cbd", "setting": "[4]; preincubation with 1–10 μM O-1918, FIG. 4", "result": "progressively right-shifted; also recorded: concentration-dependent inhibition of the relaxing effect of Abn-cbd"}, {"measurement": "antagonism of hypotensive effect of Abn-cbd", "setting": "ICR mice; 10 mg/kg O-1918, 10 min before 10 mg/kg Abn-cbd, FIG. 1A", "result": "the prolonged hypotensive phase of the effect of Abn-cbd was absent"}, {"measurement": "effect on blood pressure of the antagonist alone", "setting": "ICR mice; 10 mg/kg O-1918 injected alone", "result": "did not influence blood pressure"}, {"measurement": "antagonism of hypotensive effect of HU-210 (CB1/CB2 agonist)", "setting": "ICR mice; FIG. 1B", "result": "did not antagonize the hypotensive effect of HU-210"}]}
{"smiles": "Cc1c(C(=O)NN2CCCCC2)nn(-c2ccc(Cl)cc2Cl)c1-c1ccc(Cl)cc1", "note": "[SR141716A]", "values": [{"measurement": "inhibition of LPS-induced hypotension", "setting": "LPS-induced hypotension; pretreatment 3 mg/kg SR141716A, wild-type mice, CB1 deficient and CB1/CB2 deficient mice, FIG. 2", "result": "inhibited; also recorded: could be prevented"}]}
{"smiles": "C=C(C)[C@@H]1CCC(C)=C[C@H]1c1c(O)cc(CCCCC)cc1O", "note": "[cannabidiol]", "values": [{"measurement": "antagonism of vasodilator effect of Abn-cbd", "setting": "mesenteric arteries [2]; mesenteric", "result": "able to antagonize the vasodilator effect of Abn-cbd"}, {"measurement": "dilation of isolated mesenteric arteries", "setting": "mesenteric arteries [2]", "result": "does not elicit mesenteric vasodilation"}, {"measurement": "neurobehavioral effects", "setting": "rats and mice", "result": "devoid of neurobehavioral effects"}]}
